Laboratory results taken from patent publication US6770478B2, “Erythrocytic cells and method for preserving cells” (The Regents of the University of California, priority 2000, dated 2004).
Several values for one entry are separate records, joined by “and”; a condition that tells them apart may be missing. Equal entries are not always repeated. Entries after “also recorded” stand apart in the source; their conditions may differ. Blank lines part the entries; values can stand above or below the molecule they belong to.

How the values were obtained:
mesenchymal stem cells [1] = assay: Lucifer yellow CH loading of mesenchymal stem cells, viability by trypan blue exclusion; assay type: cell-based, human; settings: LYCH loading over 3.5 hours, 37° C.
Text: Lucifer Yellow CH-Loading. […] The pellet was split between two treatments.

platelets [2] = settings: platelets cryopreserved with DMSO; cited from earlier work
erythrocyte membranes = assay: FTIR membrane phase transitions of intact erythrocytes (CH2 symmetric stretch around 2850 cm^-1)
erythrocyte ghosts = assay: FTIR thermotropic response of erythrocyte ghosts; assay type: cell-based, human; settings: MβCD treated ghosts
Protocol: Cells were incubated at 37° C. for one hour in the presence of 10 mM methyl-β-cyclodextrin (MβCD) in order to remove cholesterol from the plasma membranes. Erythrocyte ghosts were prepared.
FTIR Spectroscopy and Sample Preparation. […] Intact cells were cooled to −5° C., kept at this temperature for 15 minutes, and then rewarmed to determine the phase transitions. […] Four scans were accumulated for each spectrum between 3600-900 cm^−1 at 4 cm^−1 resolution.
Inverted second derivative spectra were normalized on the lipid […] 2850 cm^−1. Band positions were determined as described previously. The wavenumber (cm^−1) of the CH2 symmetric stretching vibration was plotted as a function of temperature. […] For the protein studies, the spectral region between 1600 and 1500 cm^−1 selected.

mesenchymal stem cells [3] = assay: Growth curves of mesenchymal stem cells in presence of 90 mM trehalose; assay type: cell-based, human
Protocol: Growth Curves. MSCs were plated into 12-welled plates at approximately the same seeding density used for T-185 flasks in standard Osiris protocols (5900 cells/cm^2 with fluid volume of 0.189 mL/cm^2). Three wells for each condition at each time point were trypsinized and counted. Data for cells grown in the presence of trehalose were lost for the first two time points. FIG. 13 is a graph illustrating growth curves for the mesenchymal stem cells in the presence or absence of 90 mM trehalose with the open triangle data representing cells grown in standard medium for 24 hours, after which 90 mM trehalose was added.

human platelets = assay: Loading of platelets with trehalose, quantified by anthrone reaction; assay type: cell-based; settings: 37° C., after 2 hours (rapid linear uptake)
Protocol: Loading of Platelets with Trehalose. Washed platelets in a concentration of 1-2 10^9 platelets/ml were incubated at various temperatures in the presence of 1-20 mg/ml trehalose. Incubation temperatures were chosen from 4° C. to 37° C. Incubation times were varied from 0.5 to 4 hours. After incubation the platelet solutions were washed in buffer A two times (by centrifugation at 14,000 RPM for 20 s in a table centrifuge). Platelet counts were obtained on a coulter counter. Platelets were pelleted (45 S at 14,000 RPM) and sugars were extracted from the pellet using 80% methanol. The samples were heated for 30 minutes at 80° C. […] The amount of trehalose in the platelets was quantified using the anthrone reaction (Umbreit et al., Mamometric and Biochemical Techniques, 5th Edition, 1972). […] Then the samples were cooled on ice and the absorbance was measured at 620 nm on a Perkin Elmer spectrophotometer. The amount of platelet associated trehalose was determined using a standard curve of trehalose.
Quantification of Trehalose and LYCH Concentration. Uptake was calculated for each sample as micrograms of trehalose or LYCH per platelet. The internal trehalose concentration was calculated assuming a platelet radius of 1.2 μm and by assuming that 50% of the platelet volume is taken up by the cytosol (rest is membranes). […]

platelets [4] = assay: Stability and morphology of platelets during trehalose incubation (microscopy, flow cytometric analysis); assay type: cell-based, human; settings: 4 hours incubation at 37° C., 25 mM external trehalose
Protocol: The stability of the platelets during a 4 hours incubation period was studied using microscopy and flow cytometric analysis. […] No signs of microvesicle formation could be observed after 4 hours incubation, as can be judged by the stable relative proportion of microvesicle gated cells (less than 3%). The formation of microvesicles is usually considered as the first sign of platelet activation (Owners et al., Trans. Med. Rev., 8, 27-44, 1994). Characteristic antigens of platelet activation include: glycoprotein 53 (gp53, a lysosomal membrane marker), PECAM-1 (platelet endothelial cell adhesion molecule-1, an alpha granule constituent), and P-selection (an alpha granule membrane protein).

[5] = Table III, Example 11, five blood donors, standard error, 10 mM MβCD

Molecule: NNC(=O)NN1C(=O)c2cc(S(=O)(=O)O)cc3c(N)c(S(=O)(=O)O)cc(c23)C1=O [LYCH, lucifer yellow CH]
- viability (mesenchymal stem cells [1]): ~70%

Molecule: C[S+](C)[O-] [DMSO, dimethyl sulfoxide]
- overall responsiveness of frozen thawed platelets to various agonists compared with fresh platelets (platelets [2]): less than 35%

Molecule: CC(C)c1c(C(=O)Nc2ccccc2)c(-c2ccccc2)c(-c2ccc(F)cc2)n1CC[C@@H](O)C[C@@H](O)CC(=O)O [LIPITOR]
- total wavenumber excursion (from −5 to 45° C.) (erythrocyte membranes; erythrocytes of a blood donor who used LIPITOR, other donors 0.8): ~1.5 cm⁻¹

Molecule: methyl-β-cyclodextrin [MβCD]
- wavenumber excursion from −5 to 45° C. (erythrocyte membranes; Example 10, after cholesterol removal (control 0.7)): 2.9 cm⁻¹
- wavenumber excursion from −5 to 45° C. (erythrocyte membranes; Example 11, after cholesterol removal (control 0.7)): 2.9 cm⁻¹
- Cooperativity, Low Transition (erythrocyte membranes; Table II, Example 10, 1 mM MβCD, 37° C., one hour): 0.051 ± 0.004 cm^−1/° C.
- Cooperativity, High Transition (erythrocyte membranes; [5]): 0.091 cm^−1/° C. and 0.091 ± 0.020 cm^−1/° C.
- Cooperativity, Low Transition (erythrocyte membranes; [5]): 0.051 ± 0.004 cm^−1/° C.
- Cooperativity, Middle Transition (erythrocyte membranes; [5]): 0.095 cm^−1/° C. and 0.095 ± 0.015 cm^−1/° C.
- Transition Temperature, High Transition (erythrocyte membranes; [5]): 35 °C and 35.4 ± 1.5 °C
- Transition Temperature, Low Transition (erythrocyte membranes; [5]): 15 °C and 15.3 ± 0.8 °C
- Transition Temperature, Middle Transition (erythrocyte membranes; [5]): 26 °C and 26.0 ± 0.8 °C
- transition temperature, first transition (erythrocyte ghosts): 4 °C
- transition temperature, fourth transition (erythrocyte ghosts): 30 °C
- transition temperature, second transition (erythrocyte ghosts): 12 °C
- transition temperature, third transition (erythrocyte ghosts): 20 °C

- effect on cell count (mesenchymal stem cells [3]; after the third day): cell count started to drop significantly
- morphological changes of platelets (platelets [4]): No morphological changes
Molecule: OC[C@H]1O[C@H](O[C@H]2O[C@H](CO)[C@@H](O)[C@H](O)[C@H]2O)[C@H](O)[C@@H](O)[C@@H]1O [trehalose]
- effect on growth of the cells (mesenchymal stem cells [3]; up to the third day): did not interfere with growth; also recorded: does not interfere with the growth and viability
- trehalose uptake (human platelets): 3.3×10^−10 mol/m^2s
